Laboratory results: publication PMC6253949, “The Inhibitory Action of Kohamaic Acid A Derivatives on Mammalian DNA Polymerase β” (Molecules, 2008)

Molecular target: T1, Rat DNA polymerase β (Rattus norvegicus, UniProt P06766)
T1 construct: made in house; host or cells: E. coli JMpβ5
Assay: DNA polymerase assay, rat pol β
Type: biochemical
Settings: for Inhibitory mode: Lineweaver Burk plot
Source text: Pol α was purified from calf thymus by immuno-affinity column chromatography as described by Tamai et al.. Recombinant rat pol β was purified from E. coli JMpβ5 as described by Date et al.. The human pol γ catalytic gene was cloned into pFastBac. Histidine-tagged enzyme was expressed using the BAC-TO-BAC HT Baculovirus Expression System according to the supplier's manual (LIFE TECHNOLOGIES, MD, USA) and purified using ProBoundresin (Invitrogen Japan, Tokyo, Japan). Human pols δ and ε were purified by the nuclear fractionation of human peripheral blood cancer cells (Molt-4) using the second subunit of pols δ and ε-conjugated affinity column chromatography, respectively. Recombinant human pols η and ι tagged with His6 at their C-terminal were expressed in SF9 insect cells using the baculovirus expression system, and were purified as described previously. A truncated form of pol κ (i.e., hDINB1DC) with 6 x His-tags attached at the C-terminal was overproduced using the BAC-to-BAC Baculovirus Expression System kit (GIBCO BRL, MD, USA) and purified as described previously. Recombinant human His-pol λ was overexpressed and purified according to a method described previously. Fish pol δ was purified from the testis of cherry salmon (Oncorhynchus masou). Pol I (α-like) from a higher plant, cauliflower inflorescence, was purified according to the methods outlined by Sakaguchi et al.. The Klenow fragment of pol I from E. coli was purchased from Worthington Biochemical Corp. (Freehold, NJ, USA). Taq pol, T4 pol, T7 RNA polymerase and T4 polynucleotide kinase were purchased from Takara (Kyoto, Japan). Bovine pancreas deoxyribonuclease I (DNase I) was obtained from Stratagene Cloning Systems (La Jolla, CA, USA).
The reaction mixtures for pol α, pol β, fish pol δ, plant pol I (α-like) and prokaryotic pols were described previously, and those for pol γ, and pols δ and ε were as described by Umeda et al. and Ogawa et al., respectively. The reaction mixtures for pols η, ι and κ were the same as for pol α, and the reaction mixture for pol λ was the same as that for pol β.
For pols, poly(dA)/oligo(dT)12-18 (A/T = 2/1) and dTTP were used as the DNA template-primer and nucleotide (i.e., dNTP) substrate, respectively. KA-A analogues (i.e., compounds 1–12) were dissolved in distilled dimethyl sulfoxide (DMSO) at various concentrations and sonicated for 30 sec. Aliquots of 4 μL of sonicated samples were mixed with 16 μL of each enzyme (final amount 0.05 units) in 50 mM Tris-HCl (pH 7.5) containing 1 mM dithiothreitol, 50% glycerol and 0.1 mM EDTA, and kept at 0 °C for 10 min. These inhibitor-enzyme mixtures (8 μl) were added to 16 μL of each of the enzyme standard reaction mixtures, and incubation was carried out at 37 °C for 60 min, except for Taq pol, which was incubated at 74 °C for 60 min. Activity without the inhibitor was considered 100%, and the remaining activity at each concentration of the inhibitor was determined relative to this value. One unit of pol activity was defined as the amount of enzyme that catalyzed the incorporation of 1 nmol of dNTP (i.e., dTTP) into synthetic DNA template-primers in 60 min at 37 °C under the normal reaction conditions for each enzyme.

CC1=CC[C@H]2C(C)(C)CCC[C@]2(C)[C@H]1CCCCCCCCCCCCCCCCC(=O)O (relative stereo) [compound 11, (1S*,4aS*,8aS*)-17-(1,4,4a,5,6,7,8,8a-octahydro-2,5,5,8a-tetramethylnaphthalen-1-yl)heptadecanoic acid]
Relative activity of pol β (10 μM compound 11): 15.5 ± 0.78%
Relative activity of pol β (10 μM compound 11 + 50 μM poly (rC)): 15.2 ± 0.74%
Relative activity of pol β (10 μM compound 11 + 200 μg/ml BSA): 15.9 ± 1.1%
Relative activity of pol β (10 μM compound 11 + 0.05 % NP-40): 96.1 ± 7.6%
Relative activity of pol β (10 μM compound 11 + 0.1 % NP-40): 100 ± 8.8%
Relative activity of pol β (100 μM compound 11): 3.2 ± 0.16%
Relative activity of pol β (100 μM compound 11 + 50 μM poly (rC)): 3.1 ± 0.15%
Relative activity of pol β (100 μM compound 11 + 200 μg/ml BSA): 3.3 ± 0.19%
Relative activity of pol β (100 μM compound 11 + 0.05 % NP-40): 62.5 ± 4.1%
Relative activity of pol β (100 μM compound 11 + 0.1 % NP-40): 95.0 ± 7.6%
Inhibitory effect on pol β compared with KA-A (10 and 100 μM of compound (Figure 2B)): strongest inhibitory effect
Ki (DNA template-primer poly(dA)/oligo(dT)12-18, Dixon plot): 1960 nM
Vmax (DNA template-primer poly(dA)/oligo(dT)12-18, unchanged at 0-9 μM compound 11): 111 pmol/h
fold stronger pol β inhibitor than dideoxyTTP (comparison with dideoxyTTP): 4 fold
Ki (nucleotide substrate dTTP, Dixon plot): 2360 nM
Vmax (nucleotide substrate dTTP, unchanged at 0-9 μM compound 11): 62.5 pmol/h
IC50 (poly(dA)/oligo(dT)12-18 and dTTP, 0.05 units enzyme): 5500 ± 280 nM
Inhibitory mode (with respect to DNA template-primer): Competitive
Inhibitory mode (with respect to dNTP substrate): Competitive
